Reference: patent publication US7495002B2, “3-methyl-7-butinyl-xanthines, the preparation thereof and their use as pharmaceutical compositions” (Boehringer Ingelheim International GmbH, priority 2004, dated 2009)

target: T1, DPP-IV (Homo sapiens, UniProt P27487); test: DPP-IV assay with extract of Caco-2 cells as DPP IV source, AFC substrate, fluorescence; assay type: biochemical; details: extract of human colon carcinoma cell line Caco-2; substrate 100 μM; 60 minutes at ambient temperature; read-out: DPP IV inhibition IC50
T1 construct: an extract of the human colon carcinoma cell line Caco-2 is used as the DPP IV source; endogenous in cells; host or cells: Caco-2 (human colon carcinoma), differentiated to induce DPP-IV expression; Nonidet-P40 solubilised extract
Protocol: The differentiation of the cells in order to induce the DPP-IV expression was carried out in accordance with the description by Reiher et al. in an article entitled “Increased expression of intestinal cell line Caco-2”, which appeared in Proc. Natl. Acad. Sci. Vol. 90, pp. 5757-5761 (1993). The cell extract was obtained from cells solubilised in a buffer (10 mM Tris HCl, 0.15 M NaCl, 0.04 t.i.u. aprotinin, 0.5% Nonidet-P40, pH 8.0) by centrifugation at 35,000 g for 30 minutes at 4° C. (to remove cell debris).
The DPP-IV assay was carried out as follows:
50 μl of substrate solution (AFC; AFC is amido-4-trifluoromethylcoumarin), final concentration 100 μM, were placed in black microtitre plates. 20 μl of assay buffer (final concentrations 50 mM Tris HCl pH 7.8, 50 mM NaCl, 1% DMSO) was pipetted in. The reaction was started by the addition of 30 μl of solubilised Caco-2 protein (final concentration 0.14 μg of protein per well). The test substances under investigation were typically added prediluted to 20 μl, while the volume of assay buffer was then reduced accordingly. The reaction was carried out at ambient temperature, the incubation period was 60 minutes. Then the fluorescence was measured in a Victor 1420 Multilabel Counter, with the excitation wavelength at 405 nm and the emission wavelength at 535 nm. Dummy values (corresponding to 0% activity) were obtained in mixtures with no Caco-2 protein (volume replaced by assay buffer), control values (corresponding to 100% activity) were obtained in mixtures without any added substance. The potency of the test substances in question, expressed as IC50 values, were calculated from dosage/activity curves consisting of 11 measured points in each case.

T1 sequence (P27487 whole entry): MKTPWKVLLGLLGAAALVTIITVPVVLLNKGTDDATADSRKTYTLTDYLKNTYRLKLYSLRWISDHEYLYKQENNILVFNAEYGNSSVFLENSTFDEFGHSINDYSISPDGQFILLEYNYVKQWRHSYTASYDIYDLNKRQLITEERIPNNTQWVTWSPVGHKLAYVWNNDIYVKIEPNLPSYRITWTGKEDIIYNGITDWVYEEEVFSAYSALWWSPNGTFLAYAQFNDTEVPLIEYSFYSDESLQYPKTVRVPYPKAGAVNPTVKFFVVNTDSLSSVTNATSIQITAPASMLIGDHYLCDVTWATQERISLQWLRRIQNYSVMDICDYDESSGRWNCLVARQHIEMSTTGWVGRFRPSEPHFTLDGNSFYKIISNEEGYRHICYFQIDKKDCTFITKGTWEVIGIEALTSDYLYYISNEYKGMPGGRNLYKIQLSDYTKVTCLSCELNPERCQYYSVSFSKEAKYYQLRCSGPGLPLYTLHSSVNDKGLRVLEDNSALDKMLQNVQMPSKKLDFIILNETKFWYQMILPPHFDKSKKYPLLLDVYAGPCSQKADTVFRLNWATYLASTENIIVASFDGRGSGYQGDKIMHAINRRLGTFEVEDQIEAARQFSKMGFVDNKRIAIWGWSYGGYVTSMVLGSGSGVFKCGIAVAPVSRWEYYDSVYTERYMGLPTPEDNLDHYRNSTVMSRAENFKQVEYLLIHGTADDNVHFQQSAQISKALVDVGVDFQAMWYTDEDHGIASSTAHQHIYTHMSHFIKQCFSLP

Row | Compound | IC50 [nM]
1 | CC#CCn1c(N(C)C[C@H](C)N)nc2c1c(=O)n(Cc1ccc3nccnc3c1)c(=O)n2C [2(10), 1-[(quinoxalin-6-yl)methyl]-3-methyl-7-(2-butyn-1-yl)-8-[(S)-(2-amino-propyl)-methylamino]-xanthine] | 3
2 | CC#CCn1c(N(C)C[C@H](C)N)nc2c1c(=O)n(Cc1nc(C)c3ccccc3n1)c(=O)n2C [Example 2(4), 1-[(4-methyl-quinazolin-2-yl)methyl]-3-methyl-7-(2-butyn-1-yl)-8-[(S)-(2-amino-propyl)-methylamino]-xanthine] | 2
3 | CC#CCn1c(N(C)CC(C)(C)N)nc2c1c(=O)n(Cc1nc(C)c3ccccc3n1)c(=O)n2C [2(1), 1-[(4-methyl-quinazolin-2-yl)methyl]-3-methyl-7-(2-butyn-1-yl)-8-[(2-amino-2-methyl-propyl)-methylamino]-xanthine] | 3

The remaining molecules from weak to strong by IC50, led by results:

Row | IC50 [nM] | Compound
4 | 3 | CC#CCn1c(N(C)C[C@H](C)N)nc2c1c(=O)n(Cc1ncccc1C#N)c(=O)n2C [2(11), 1-[(3-cyano-pyridin-2-yl)methyl]-3-methyl-7-(2-butyn-1-yl)-8-[(S)-(2-amino-propyl)-methylamino]-xanthine]
5 | 2 | CC#CCn1c(N(C)CCN)nc2c1c(=O)n(Cc1nc(C)c3ccccc3n1)c(=O)n2C [1(1), 1-[(4-methyl-quinazolin-2-yl)methyl]-3-methyl-7-(2-butyn-1-yl)-8-[(2-amino-ethyl)-methylamino]-xanthine]
6 | 2 | CC#CCn1c(N(C)C[C@H](C)N)nc2c1c(=O)n(Cc1ncc3ccccc3c1C#N)c(=O)n2C [2(12), 1-[(4-cyano-isoquinolin-3-yl)methyl]-3-methyl-7-(2-butyn-1-yl)-8-[(S)-(2-amino-propyl)-methylamino]-xanthine]

test system: rats; test: Tolerability in rats after oral administration; assay type: in vivo; details: oral administration of 10 mg/kg

Row | Compound | toxic side effects
7 | CC#CCn1c(N(C)C[C@H](C)N)nc2c1c(=O)n(Cc1nc(C)c3ccccc3n1)c(=O)n2C [Example 2(4), 1-[(4-methyl-quinazolin-2-yl)methyl]-3-methyl-7-(2-butyn-1-yl)-8-[(S)-(2-amino-propyl)-methylamino]-xanthine] | no toxic side effects could be detected
